According to patent US9422240B2, “Partially saturated nitrogen-containing heterocyclic compound” (TAISHO PHARMACEUTICAL CO., LTD, priority 2012, dated 2016):

Assays:
human PHD2 [1] = target: T1, human PHD2 (Homo sapiens (Human), UniProt Q9GZT9); assay: Test 1: human PHD2 inhibitory activity, [14C]-2-oxoglutarate to [14C]-succinic acid radiometric assay with HIF-1α peptide; type: biochemical; conditions: test compound's concentration 1 μM; Test 1, [14C]-2-oxoglutarate radiometric assay; read-out: Percent inhibition (% at 1 μM)
T1 sequence (Q9GZT9 whole entry): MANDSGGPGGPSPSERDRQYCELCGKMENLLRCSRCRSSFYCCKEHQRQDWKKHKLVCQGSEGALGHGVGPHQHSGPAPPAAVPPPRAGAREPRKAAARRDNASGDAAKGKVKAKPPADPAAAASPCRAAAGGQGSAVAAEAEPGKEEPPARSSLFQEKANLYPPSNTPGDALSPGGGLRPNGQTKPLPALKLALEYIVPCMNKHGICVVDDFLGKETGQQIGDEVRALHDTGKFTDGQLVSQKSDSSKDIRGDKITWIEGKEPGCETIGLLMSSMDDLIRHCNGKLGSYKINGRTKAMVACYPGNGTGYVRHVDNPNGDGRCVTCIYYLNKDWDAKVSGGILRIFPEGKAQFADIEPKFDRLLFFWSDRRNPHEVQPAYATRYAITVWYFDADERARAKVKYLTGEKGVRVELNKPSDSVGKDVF
Summary of the method: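 Lysate from HighFive insect cells expressing human PHD2 (4 μg/well) was incubated for 15 min at 37° C with a 19-residue HIF-1α peptide and [14C]-2-oxoglutarate. Unreacted 2-oxoglutarate was precipitated with DNPH and filtered off, and [14C]-succinic acid was counted. Inhibition was calculated relative to substrate-free and compound-free controls.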

human PHD2 [2] = target: T1, human PHD2; assay: Test 2: human PHD2 inhibitory activity, fluorescence polarization assay of HIF-1α peptide proline hydroxylation; type: biochemical; conditions: for inhibition at 1 µM: test compound's concentration 1 μM, Test 2, fluorescence polarization assay, read-out: Percent inhibition (% at 1 μM); for IC50: human PHD2, fluorescence polarization assay, 20-min incubation at 30° C.
Summary of the method: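 Enzyme from lysate of cells expressing human PHD2 (NM_022051), 40 ng/well, added to compound and 19-residue HIF-1α peptide substrate; 20 min at 30° C., EDTA quench. Prolyl hydroxylation detected by HIF-OH antibody binding via fluorescence polarization; inhibition relative to compound-free wells.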

Row | inhibition at 1 µM (human PHD2 [1]) [%] | inhibition at 1 µM (human PHD2 [2]) [%] | IC50 (human PHD2 [2]) [nM] | SMILES
1 | 84 | 85 |  | O=C(O)CNC(=O)C1=C(O)CCN(Cc2ccc(C(F)(F)F)c(C3CC3)c2)C1=O [Ex. 1-190]
2 | 38 | 45 |  | COc1cc(CN2C(=O)C(C(=O)NCC(=O)O)=C(O)CC2(C)C)ccc1C(F)(F)F [Ex. 1-191]
3 | 48 | 49 |  | CC1(C)CC(O)=C(C(=O)NCC(=O)O)C(=O)N1Cc1ccc(C(F)(F)F)c(OC(F)F)c1 [Ex. 1-192]
4 | 67 | 57 |  | COc1ccc(CN2C(=O)C(C(=O)NCC(=O)O)=C(O)CC2(C)C)c(F)c1 [Ex. 1-193]
5 | 54 | 57 |  | COc1ccc(CN2C(=O)C(C(=O)NCC(=O)O)=C(O)CC2(C)C)cc1F [Ex. 1-194]
6 | 52 | 57 |  | COc1ccc(CN2C(=O)C(C(=O)NCC(=O)O)=C(O)CC2(C)C)cc1Cl [Ex. 1-195]
7 | 41 | 48 |  | COc1ccc(CN2C(=O)C(C(=O)NCC(=O)O)=C(O)CC2(C)C)cc1C [Ex. 1-196]
8 | 66 | 78 |  | CC(C)C1CN(Cc2ccc(C(F)(F)F)cc2)C(=O)C(C(=O)NCC(=O)O)=C1O (stereo not shown) [Ex. 1-197]
9 | 70 | 79 |  | CC1(C)CC(O)=C(C(=O)NCC(=O)O)C(=O)N1Cc1ccc(OCC2CC2)cc1 [Ex. 1-198]
10 | 65 | 75 |  | Cc1cc(CN2C(=O)C(C(=O)NCC(=O)O)=C(O)CC2(C)C)ccc1OCC1CC1 [Ex. 1-199]
11 | 98 | 99 |  | O=C(O)CNC(=O)C1=C(O)C2(CC2)CN(Cc2ccc(-c3ccccc3)cc2)C1=O [Ex. 1-200]
12 | 67 | 73 |  | CC1(C)CC(O)=C(C(=O)NCC(=O)O)C(=O)N1Cc1ccc(OCCCC(F)(F)F)c(F)c1 [Ex. 1-201]
13 | 58 | 69 |  | Cc1ccc(CN2C(=O)C(C(=O)NCC(=O)O)=C(O)CC2(C)C)cc1Cl [Ex. 1-202]
14 | 61 | 69 |  | CC1(C)CC(O)=C(C(=O)NCC(=O)O)C(=O)N1Cc1ccc(C2CC2)cc1 [Ex. 1-203]
15 | 69 | 79 |  | CC1(C)CC(O)=C(C(=O)NCC(=O)O)C(=O)N1Cc1ccc(OCC2CC2)c(F)c1 [Ex. 1-204]
16 | 95 | 93 |  | Cc1ccc(Oc2ccc(CN3C(=O)C(C(=O)NCC(=O)O)=C(O)CC3(C)C)cn2)cc1 [Ex. 1-206]
17 | 92 | 93 |  | O=C(O)CNC(=O)C1=C(O)C2(CC2)CN(Cc2ccc(Br)cc2)C1=O [Ex. 1-207]
18 | 90 | 85 |  | O=C(O)CNC(=O)C1=C(O)C2(CC2)CN(Cc2ccc(OC(F)(F)F)cc2)C1=O [Ex. 1-208]
19 | 59 | 42 |  | CC1CC(O)=C(C(=O)NCC(=O)O)C(=O)N1C1(c2ccc(C(F)(F)F)cc2)CC1 (stereo not shown) [Ex. 1-210]
20 | 76 | 79 |  | CC1(C)CC(O)=C(C(=O)NCC(=O)O)C(=O)N1Cc1ccc(C2CCC2)cc1 [Ex. 1-211]

Row | inhibition at 1 µM (human PHD2 [1]) [%] | inhibition at 1 µM (human PHD2 [2]) [%] | IC50 (human PHD2 [2]) [nM] | SMILES
21 | 82 | 85 |  | O=C(O)CNC(=O)C1=C(O)CCN(Cc2ccc(C3CC3)c(C(F)(F)F)c2)C1=O [Ex. 1-212]
22 | 88 | 88 |  | CC1(C)CC(O)=C(C(=O)NCC(=O)O)C(=O)N1Cc1cc(-c2ccc(Cl)cc2)no1 [Ex. 1-213]
23 | 89 | 90 |  | O=C(O)CNC(=O)C1=C(O)C2(CC2)CN(Cc2ccc(C3CC3)cc2)C1=O [Ex. 1-214]
24 | 85 | 86 |  | O=C(O)CNC(=O)C1=C(O)C2(CC2)CN(Cc2ccc(Cl)cc2)C1=O [Ex. 1-215]
25 | 75 | 73 |  | CC1(C)CC(O)=C(C(=O)NCC(=O)O)C(=O)N1Cc1cc(-c2ccc(Cl)cc2)on1 [Ex. 1-216]
26 | 52 | 60 |  | CC1(C)CC(O)=C(C(=O)NCC(=O)O)C(=O)N1CC1CC(c2ccccc2)C1 (stereo not shown) [Ex. 1-217]
27 | 52 | 62 |  | CC1(C)CC(O)=C(C(=O)NCC(=O)O)C(=O)N1C[C@H]1C[C@@H](c2ccccc2)C1 [Ex. 1-218]
28 | 69 | 88 |  | O=C(O)CNC(=O)C1=C(O)CCN(C2(c3ccc(-c4ccccc4)cc3)CC2)C1=O [Ex. 1-219]
29 | 72 | 82 |  | O=C(O)CNC(=O)C1=C(O)CCN(C2CCC(Cc3ccccc3)CC2)C1=O (stereo not shown) [Ex. 1-220]
30 | 66 | 73 |  | CC1(C)CC(O)=C(C(=O)NCC(=O)O)C(=O)N1Cc1ccc(OCC(F)(F)F)cc1 [Ex. 1-221]
31 | 90 | 89 |  | O=C(O)CNC(=O)C1=C(O)CCN(Cc2ccc(OCC(F)(F)F)c(Cl)c2)C1=O [Ex. 1-222]
32 | 90 | 96 |  | O=C(O)CNC(=O)C1=C(O)CC2(CC2)N(Cc2ccc(-c3ccccc3)cc2)C1=O [Ex. 1-223]
33 | 80 | 90 |  | O=C(O)CNC(=O)C1=C(O)CC2(CC2)N(Cc2ccc(C(F)(F)F)cc2)C1=O [Ex. 1-224]
34 | 100 | 98 | 40 | N#Cc1ccc(Oc2ccc(CN3CCC(O)=C(C(=O)NCC(=O)O)C3=O)cn2)cc1 [Ex. 1-225]
35 | 76 | 75 |  | CCCOc1ccc(CN2C(=O)C(C(=O)NCC(=O)O)=C(O)CC2(C)C)cc1 [Ex. 1-227]
36 | 71 | 64 |  | CC(C)Oc1ccc(CN2C(=O)C(C(=O)NCC(=O)O)=C(O)CC2(C)C)cc1 [Ex. 1-228]
37 | 74 | 60 |  | CC1(C)CC(O)=C(C(=O)NCC(=O)O)C(=O)N1C[C@H]1C[C@@H]1c1ccccc1 [Ex. 1-229]
38 | 96 | 95 |  | CC(c1ccc(-c2ccccc2)cc1)N1CCC(O)=C(C(=O)NCC(=O)O)C1=O (stereo not shown) [Ex. 1-230]
39 | 65 | 44 |  | CC(C)(c1ccc(C(F)(F)F)cc1)N1CCC(O)=C(C(=O)NCC(=O)O)C1=O [Ex. 1-231]
40 | 89 | 91 |  | CC(C)(C)COCc1ccc(CN2CCC(O)=C(C(=O)NCC(=O)O)C2=O)cc1 [Ex. 1-232]

Row | inhibition at 1 µM (human PHD2 [1]) [%] | inhibition at 1 µM (human PHD2 [2]) [%] | IC50 (human PHD2 [2]) [nM] | SMILES
41 | 91 | 93 |  | CC1(COCc2ccc(CN3CCC(O)=C(C(=O)NCC(=O)O)C3=O)cc2)CC1 [Ex. 1-233]
42 | 61 | 62 |  | CCOc1ccc(CN2C(=O)C(C(=O)NCC(=O)O)=C(O)CC2(C)C)cc1 [Ex. 1-234]
43 | 84 | 87 |  | O=C(O)CNC(=O)C1=C(O)CC2(CCC2)N(Cc2ccc(C3CC3)cc2)C1=O [Ex. 1-236]
44 | 74 | 84 |  | O=C(O)CNC(=O)C1=C(O)C2(CCC2)CN(Cc2ccc(C3CC3)cc2)C1=O [Ex. 1-237]
45 | 92 | 99 |  | O=C(O)CNC(=O)C1=C(O)CCN(Cc2ccc(OCC3CCC3)cc2)C1=O [Ex. 1-238]
46 | 74 | 87 |  | CC1(C)CC(O)=C(C(=O)NCC(=O)O)C(=O)N1Cc1ccc(OCC2CCC2)cc1 [Ex. 1-239]
47 | 91 | 97 |  | O=C(O)CNC(=O)C1=C(O)CCN(Cc2ccc(OCc3ccccc3)cc2)C1=O [Ex. 1-240]
48 | 97 | 101 |  | O=C(O)CNC(=O)C1=C(O)CCN(Cc2ccc(OCc3ccc(F)cc3)cc2)C1=O [Ex. 1-241]
49 | 100 | 101 |  | O=C(O)CNC(=O)C1=C(O)CCN(Cc2ccc(OCc3ccc(Cl)cc3)cc2)C1=O [Ex. 1-242]
50 | 76 | 92 |  | O=C(O)CNC(=O)C1=C(O)CCN(Cc2ccc(C3CCC3)c(C(F)(F)F)c2)C1=O [Ex. 1-243]
51 | 47 | 50 |  | CC1(C)CC(O)=C(C(=O)NCC(=O)O)C(=O)N1C[C@@H]1C[C@@H]1c1ccccc1 [Ex. 1-244]
52 | 80 | 78 |  | O=C(O)CNC(=O)C1=C(O)CCN(Cc2ccc(C(F)(F)F)c(C3CCC3)c2)C1=O [Ex. 1-245]
53 | 81 | 82 |  | CC1(C)CC(O)=C(C(=O)NCC(=O)O)C(=O)N1Cc1ccc(OCCC2CC2)cc1 [Ex. 1-247]
54 | 103 | 94 |  | O=C(O)CNC(=O)C1=C(O)CCN(Cc2ccc(CCC3CC3)cc2)C1=O [Ex. 1-249]
55 | 80 | 81 |  | O=C(O)CNC(=O)C1=C(O)C2(CCC2)CN(Cc2ccc(OCC3CC3)cc2)C1=O [Ex. 1-250]
56 | 90 | 83 |  | O=C(O)CNC(=O)C1=C(O)CC2(CC2)N(Cc2ccc(OCC3CC3)cc2)C1=O [Ex. 1-251]
57 | 104 | 98 | 87 | O=C(O)CNC(=O)C1=C(O)CCN(Cc2ccc(Oc3ccc(F)cc3)nc2)C1=O [Ex. 1-252]
58 | 45 | 49 |  | O=C(O)CNC(=O)C1=C(O)CC2(CCCCC2)N(Cc2ccccc2)C1=O [Ex. 1-253]
59 | 103 | 96 | 24 | O=C(O)CNC(=O)C1=C(O)CCN(Cc2ccc(Oc3ccc(C(F)(F)F)cc3)nc2)C1=O [Ex. 1-254]
